In patent US20190008961A1, “COMPOUNDS AND METHODS FOR INCREASING TUMOR INFILTRATION BY IMMUNE CELLS” (THE BROAD INSTITUTE, INC., priority 2016, published 2019):
Each block holds one compound with its values, some of them ahead of it.

What was measured:
MSC cells = test: RSL3 toxicity in the presence of inhibitors of arachidonic acid metabolic enzymes; format: cell-based; conditions: for effect on toxicity of RSL3: increasing amounts of RSL3, FIG. 13; for RSL3 mediated cell death in MSCs with soluble epoxide hydrolase inhibitors: FIG. 14, TPPU 20 and 80 μM, AUDA and butyl-AUDA 80 μM
Description: To investigate the role of RSL3's effects on MSC toxicity, MDA-MSC co-cultures were contacted by compounds that were known inhibitors of arachidonic acid metabolic enzymes.

[1] = system: MSCs and WI-38 fibroblasts; test: viability, Cell Titer Glo, 72 hours; format: cell-based, human
Procedure: Viability measurements were made to determine whether RSL3 is toxic to MDA cells, MSCs or both. Viability was assessed by seeding cells into 384-well opaque-bottom plates (Corning, Corning N.Y. catalog #3570) then treating them 24 hours later with varying concentrations of RSL3 (added using the pin-transfer instrument CyBi-Well Vario, Cybio, Woburn Mass.) for an additional period of 72 hours. Viable cells remaining after the treatment were quantified using the Cell Titer Glo reagent (Promega, Madison Wis. catalog #G7570) that measures cellular ATP content.

MSC-shGPX cells = test: Zileuton rescue of viability in GPX4 knockdown MSCs; format: cell-based; conditions: increasing Zileuton
Procedure: In a knockdown GPX4 experiment in MSCs, increasing amounts of Zileuton were added to MSC-shLacZ cells as a control and to MSC-shGPX cells growing in 384-well plates and their viability was measured after 5 days of growth (see FIG. 15).

[2] = microsomal stability, human; format: in vitro ADME
Procedure: (§1) Microsomal Stability. Microsomal stability was determined at 37° C. at 60 minutes in both human and mouse microsomes. Each compound was prepared in duplicate at 1 μM with 0.3 mg/mL microsomes in PBS pH 7.4 (1% DMSO). Compounds were incubated at 37° C. for 60 minutes with a 350-rpm orbital shake with time points taken at 0 minutes and 60 minutes. Samples were analyzed by UPLC-MS (Waters, Milford, Mass.) with compounds detected by SIR detection on a single quadrupole mass spectrometer.

plasma stability, human = format: in vitro ADME
Procedure: (§2) Plasma Stability. Plasma stability was determined at 37° C. at 5 hours in both human and mouse plasma. Each compound was prepared in duplicate at 5 μM in plasma diluted 50/50 (v/v) with PBS pH 7.4 (0.95% acetonitrile, 0.05% DMSO). Compounds were incubated at 37° C. for 5 hours with a 350-rpm orbital shake with time points taken at 0 hours and 5 hours. Samples were analyzed by UPLC-MS (Waters, Milford, Mass.) with compounds detected by SIR detection on a single quadrupole mass spectrometer.

[3] = plasma protein binding by equilibrium dialysis, human; format: in vitro ADME; conditions: 5 μM
Procedure: Plasma Protein Binding. Plasma protein binding was determined by equilibrium dialysis using the Rapid Equilibrium Dialysis (RED) device (Pierce Biotechnology, Rockford, Ill.) for both human and mouse plasma. Each compound was prepared in duplicate at 5μM in plasma (0.95% acetonitrile, 0.05% DMSO) and added to one side of the membrane (200 μL) with PBS pH 7.4 added to the other side (350 μL). Compounds were incubated at 37° C. for 5 hours with a 350-rpm orbital shake. After incubation, samples were analyzed by UPLC-MS (Waters, Milford, Mass.) with compounds detected by SIR detection on a single quadrupole mass spectrometer.

[4] = microsomal stability, mouse; format: in vitro ADME
Procedure: as §1

plasma stability, mouse = format: in vitro ADME
Procedure: as §2

Compound: COc1ccc2c(c1)c(CC(=O)O)c(C)n2C(=O)c1ccc(Cl)cc1 [Indomethacin]
- effect on toxicity of RSL3 (MSC cells): little impact

Compound: COc1ccc(N(C(=O)CCl)C(C(=O)NCCc2ccccc2)c2cccs2)cc1Cl (stereo not shown) [ML162]
- stromal cell death, potency relative to RSL3 [1]: lower potencies than that of RSL3

Compound: CCOC(=O)c1ccc(NC2CCCCC2)c(N)c1 [ferrostatin]
- rescue of stromal cells from death by GPX4 inhibition (MSC cells): rescued

Compound: CC(c1cc2ccccc2s1)N(O)C(N)=O (stereo not shown) [Zileuton]
- amount of MSC-shGPX cells that survived (MSC-shGPX cells; 5 days of growth): increased with higher amounts of Zileuton
- viability of control MSC-shLacZ cells (MSC-shGPX cells; FIG. 15): no effect
- rescue of stromal cells from death by GPX4 inhibition (MSC cells): rescued
- effect on toxicity of RSL3 (MSC cells): lessened the toxicity of RSL3

- Liver Microsome Stability (1 h) ([2]; Human, 1 μM, 0.3 mg/mL microsomes): 32.7%
- stability in human liver microsomal assay, in words ([2]; human): modest stability
- Plasma Stability (5 h) (plasma stability, human; Human, 37° C., 5 μM): 47%
- stability in human plasma, in words (plasma stability, human; human): modest stability
- Plasma Binding Protein (5 h) [3]: 98.2%
- Liver Microsome Stability (1 h) ([4]; Mouse, 1 μM, 0.3 mg/mL microsomes): <1%
- stability in murine liver microsomal assay, in words ([4]; murine): little stability
- Plasma Stability (5 h) (plasma stability, mouse; Mouse, 37° C., 5 μM): <1%
- stability in murine plasma, in words (plasma stability, mouse; murine): little stability
Compound: COC(=O)c1ccc([C@@H]2c3[nH]c4ccccc4c3C[C@@H](C(=O)OC)N2C(=O)CCl)cc1 [RSL3]
- potency in inhibiting viability of stromal cells compared with MDA cancer cells or HUVEC endothelial cells ([1]; 72 hours treatment): > 10 fold

Compound: c1ccc2c(c1)SCc1c-2[nH]c2ccccc12 [PD146176]
- effect on toxicity of RSL3 (MSC cells): lessened the toxicity of RSL3

Compound: CCCCOC(=O)CCCCCCCCCCCNC(=O)NC12C[C@H]3C[C@@H](C1)C[C@@H](C2)C3 [butyl-AUDA]
- RSL3 mediated cell death in MSCs with soluble epoxide hydrolase inhibitors (MSC cells): increase in RSL3 mediated cell death

Compound: COc1cccc2c1C(=O)c1c(O)c3c(c(O)c1C2=O)C[C@@](O)(C(=O)CO)C[C@@H]3O[C@H]1C[C@H](N)[C@H](O)[C@H](C)O1 [doxorubicin]
- sensitivity of MSCs and fibroblasts to the drug ([1]; viability, FIG. 4B): did not show enhanced sensitivity

Compound: CCC(=O)N1CCC(NC(=O)Nc2ccc(OC(F)(F)F)cc2)CC1 [TPPU]
- RSL3 mediated cell death in MSCs with soluble epoxide hydrolase inhibitors (MSC cells): increase in RSL3 mediated cell death
- effect on toxicity of RSL3 (MSC cells): enhanced RSL3 effects

Compound: CCCCS(=N)(=O)CCC(N)C(=O)O (stereo not shown) [buthionine sulfoximine, S-n-butyl homocysteine sulfoximine]
- stromal cell death, potency relative to RSL3 [1]: lower potencies than that of RSL3

Compound: O=C(O)CCCCCCCCCCCNC(=O)NC12CC3CC(CC(C3)C1)C2 [AUDA]
- RSL3 mediated cell death in MSCs with soluble epoxide hydrolase inhibitors (MSC cells): increase in RSL3 mediated cell death

Compound: CC(C)c1ccc2c(c1)c(SC(C)(C)C)c(CC(C)(C)C(=O)O)n2Cc1ccc(Cl)cc1 [MK886]
- effect on toxicity of RSL3 (MSC cells): lessened the toxicity of RSL3
